Experimental data reported in patent publication US20090176794A1, “1H-INDOL-1-YL-UREA COMPOUNDS” (LES LABORATOIRES SERVIER, priority 2008, published 2009).

Assays:
[1] = Predicted metabolic stability, human hepatic microsomes; assay type: in vitro ADME; settings: human hepatic microsomes 0.33 mg prot/ml; compound 10^-7 M; NADPH; 0-60 min
Procedure: (§1) The predicted metabolic stability is tested by incubation of the compounds at a concentration of 10^−7M in the presence of mouse, rat or human hepatic microsomes (0.33 mg of prot/ml). After addition of NADPH (nicotinamide adenine dinucleotide phosphate, reduced form), samples are taken at 0, 5, 15, 30 and 60 minutes. The enzymatic reaction is stopped using methanol (V/V). The protein is precipitated by centrifugation and the supernatant is analysed by LC-MS-MS.

[2] = Predicted metabolic stability, rat hepatic microsomes; assay type: in vitro ADME; settings: rat hepatic microsomes 0.33 mg prot/ml; compound 10^-7 M; NADPH; 0-60 min
Procedure: as §1

[3] = Predicted metabolic stability, mouse hepatic microsomes; assay type: in vitro ADME; settings: mouse hepatic microsomes 0.33 mg prot/ml; compound 10^-7 M; NADPH; 0-60 min
Procedure: as §1

[4] = system: tyrosine hydroxylase (TH) protein in the locus coeruleus (LC); assay: Induction of tyrosine hydroxylase in the locus coeruleus after i.p. injection; assay type: in vivo; settings: i.p. 20 mg/kg, three days after single injection, Balb/C mouse; for amount of TH in LC section 1, relative to the mean value of the control group: LC section 1 (anterior-to-posterior)
Text: A search is made among the compounds for those which are capable of bringing about an increase in the tyrosine hydroxylase (TH) protein in the locus coeruleus (LC) of the brain of the Balb/C mouse.
The animals used are male mice of the pure Balb/C strain (Charles River Laboratories) aged from 7 to 8 weeks at the time of treatment.
The mice are given a single injection, by the intraperitoneal route, of the compound under test, dissolved in 0.04M HCl solution (corresponding control: […]), if the compound is sufficiently soluble, or in olive oil 90%/DMSO 10% (corresponding control: olive oil 90%/DMSO 10%) for compounds that are insoluble in an aqueous medium.
Three days after the injection of each compound, all the animals are sacrificed by decapitation. The brains are removed and then frozen in liquid nitrogen and stored at −80° C.
Coronal sections 8 microns thick are taken along the posterior-anterior axis of the LC and fixed. The sections are transferred onto Immobilon-P membranes. The TH is measured by immunodetection and image analysis.

ERK2 [5] = molecular target: T1, ERK2 (Homo sapiens, UniProt P28482); assay: Biacore direct interaction with recombinant ERK2; assay type: binding
T1 sequence (P28482 whole entry, species assumed): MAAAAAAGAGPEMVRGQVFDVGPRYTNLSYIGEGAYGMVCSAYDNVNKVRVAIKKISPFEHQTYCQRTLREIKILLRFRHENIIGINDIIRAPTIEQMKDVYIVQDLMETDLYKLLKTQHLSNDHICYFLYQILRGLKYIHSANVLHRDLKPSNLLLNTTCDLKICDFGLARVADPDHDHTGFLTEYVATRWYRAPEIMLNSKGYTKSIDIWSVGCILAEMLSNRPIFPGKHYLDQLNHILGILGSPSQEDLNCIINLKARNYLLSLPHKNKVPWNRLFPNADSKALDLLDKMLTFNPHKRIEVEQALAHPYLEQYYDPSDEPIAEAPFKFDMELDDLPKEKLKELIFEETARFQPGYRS
Text: (§2) Various forms of non-phosphorylated recombinant ERK (ERK1 and ERK2) and of phosphorylated recombinant ERK (p-ERK1 and p-ERK2) are fixed separately on “chips” and studied in the Biacore® system. The direct interaction of the compound of Example 1 at different concentrations is studied. • 2. Results

ERK2 [6] = molecular target: T1, ERK2; assay: ERK2 phosphorylation ex vivo in pig brain tissues; assay type: biochemical; set-up: host or cells: recombinant protein added to pig brain tissue preparations; settings: 3×10^-9 M
Text: (§3) The various brain structures are isolated, treated and suspended in a medium without phosphate, after inactivation of the phosphatases of the tissues. The tissues are cleared of their own ERK and p-ERK and placed in the presence of specific recombinant forms of ERK1, ERK2, p-ERK1 and p-ERK2.
(§4) The phosphorylation capacities are studied in the presence and absence of the compound of Example 1 by means of antibodies that allow evaluation of non-phosphorylated and phosphorylated ERK1 and ERK2. • 2. Results

ERK1 [7] = molecular target: T2, ERK1 (Homo sapiens, UniProt P27361); assay: ERK1 phosphorylation ex vivo in pig brain tissues; assay type: biochemical; set-up: host or cells: recombinant protein added to pig brain tissue preparations; settings: 3×10^-9 M
T2 sequence (P27361 whole entry, species assumed): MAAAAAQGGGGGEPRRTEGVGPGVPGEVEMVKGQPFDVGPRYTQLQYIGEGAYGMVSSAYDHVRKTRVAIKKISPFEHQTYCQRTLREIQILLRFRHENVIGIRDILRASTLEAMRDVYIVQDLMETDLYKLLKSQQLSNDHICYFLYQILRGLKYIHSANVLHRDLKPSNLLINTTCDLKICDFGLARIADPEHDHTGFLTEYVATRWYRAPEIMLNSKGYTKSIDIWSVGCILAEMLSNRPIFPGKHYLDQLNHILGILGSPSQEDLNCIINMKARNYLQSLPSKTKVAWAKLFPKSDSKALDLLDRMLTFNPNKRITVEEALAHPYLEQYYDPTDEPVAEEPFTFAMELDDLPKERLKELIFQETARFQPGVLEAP
Text: as §3, §4

ERK1 [8] = molecular target: T2, ERK1; assay: Biacore direct interaction with recombinant ERK1; assay type: binding
Text: as §2

[9] = system: confluent endothelial cells from bovine capillaries; assay: Predicted crossing of the blood-brain barrier (BBB); assay type: in vitro ADME; set-up: key: high; intermediate; low; settings: 20 μM in upper compartment; filter with bovine capillary endothelial cells; 10-60 min
Procedure: The substances are incubated at 20 μM in the upper compartment of a double container, the upper compartment being separated from the lower compartment either solely by a polycarbonate filter or by the same filter covered with confluent endothelial cells from bovine capillaries. Evaluation of the permeability kinetics is carried out by means of LC-MS-MS quantification of the unchanged substance in the lower compartment after 10, 20, 30, 40 and 60 minutes.

[10] = pig brain prefrontal cortex ex vivo

SMILES | % metabolic stability predicted using hepatic microsomes, Human [1] [%] | % metabolic stability predicted using hepatic microsomes, Rat [2] [%] | % metabolic stability predicted using hepatic microsomes, Mouse [3] [%] | amount of TH in LC section 1, relative to the mean value of the control group [4] [%] | amount of TH in LC section 2, relative to the mean value of the control group [4] [%] | amount of TH in LC section 3, relative to the mean value of the control group [4] [%] | amount of TH in LC section 4, relative to the mean value of the control group [4] [%] | amount of TH in LC section 5, relative to the mean value of the control group [4] [%] | amount of TH in LC section 6, relative to the mean value of the control group [4] [%] | amount of TH in LC section 7, relative to the mean value of the control group [4] [%] | amount of TH in LC section 8, relative to the mean value of the control group [4] [%] | other results
O=C(Nc1ccncc1)Nn1ccc2ccccc21 [Example 6, N-(1H-indol-1-yl)-N′-(4-pyridyl)urea] | 77 | 73 | 77 | 65 | 81 | 59 | 33 | 20 | 13 | 8 | 2 | –
O=C(Nc1cccnc1)Nn1ccc2ccccc21 [Example 1, N-(1H-indol-1-yl)-N′-(3-pyridyl)urea] | 72 | 78 | 78 | 66 | 85 | 74 | 64 | 45 | 40 | 8 | 2 | binding to ERK2 (ERK2 [5]; non-phosphorylated recombinant ERK2 on chip, different concentrations): binds strongly; binding to ERK2 when the corresponding phosphorylated ERK is added to the medium (ERK2 [5]; p-ERK2 added to the medium): inhibited; phosphorylation of ERK2 in the hippocampus (ERK2 [6]; pig brain hippocampus ex vivo): increases; phosphorylation of ERK2 in the prefrontal cortex (ERK2 [6]; [10]): increases; phosphorylation of ERK2 in the striatum (ERK2 [6]; pig brain striatum ex vivo): increases; phosphorylation of ERK1 in the hippocampus (ERK1 [7]; pig brain hippocampus ex vivo): increases; phosphorylation of ERK1 in the prefrontal cortex (ERK1 [7]; [10]): increases; binding to ERK1 (ERK1 [8]; non-phosphorylated recombinant ERK1 on chip, different concentrations): binds strongly; binding to ERK1 when the corresponding phosphorylated ERK is added to the medium (ERK1 [8]; p-ERK1 added to the medium): inhibited; degree of crossing of the BBB (category) [9]: high
O=C(Nc1cccnc1)NN1CCc2ccccc21 [Example 2, N-(2,3-dihydro-1H-indol-1-yl)-N′-(3-pyridyl)urea] | 98 | 55 | 85 | 63 | 77 | 64 | 57 | 34 | 15 | 8 | 2 | –

Continued, in another order:

% metabolic stability predicted using hepatic microsomes, Human [1] [%] | % metabolic stability predicted using hepatic microsomes, Rat [2] [%] | % metabolic stability predicted using hepatic microsomes, Mouse [3] [%] | SMILES | amount of TH in LC section 1, relative to the mean value of the control group [4] [%] | amount of TH in LC section 2, relative to the mean value of the control group [4] [%] | amount of TH in LC section 3, relative to the mean value of the control group [4] [%] | amount of TH in LC section 4, relative to the mean value of the control group [4] [%] | amount of TH in LC section 5, relative to the mean value of the control group [4] [%] | amount of TH in LC section 6, relative to the mean value of the control group [4] [%] | amount of TH in LC section 7, relative to the mean value of the control group [4] [%] | amount of TH in LC section 8, relative to the mean value of the control group [4] [%] | other results
82 | 89 | 84 | O=C(Nc1ccncc1)Nn1ccc2cc(Cl)ccc21 [Example 13, N-(5-chloro-1H-indol-1-yl)-N′-(4-pyridyl)urea] | – | – | – | – | – | – | – | – | –
67 | 69 | 72 | O=C(NCc1ccccn1)Nn1ccc2ccccc21 [Example 24, N-(1H-indol-1-yl)-N′-(2-pyridylmethyl)urea] | 74 | 78 | 68 | 45 | 29 | 19 | 5 | 7 | –
